The record followed here is patent US20250298027A1, “METHOD OF EVALUATING SMALL MOLECULE DISTRIBUTION USING TELLUROPHENE ANALOGUES” (THE GOVERNING COUNCIL OF THE UNIVERSITY OF TORONTO, priority 2022, published 2025).

One data set has as its target T1, Top2 (Homo sapiens, UniProt P11388).
T1 construct: purchased TopoGEN, Inc
As to the kind of experiment: Top2 decatenation assay using kinetoplast DNA. It is filed as biochemical. The method, then: The relative Top2 inhibitory activity of 1 in comparison to teniposide was evaluated in decatenation assays using kinetoplast DNA (kDNA). Decatenation of the DNA, catalyzed by Top2, can be readily resolved using agarose gel electrophoresis.
Top2 decatenation assay: The assay was performed according to manufacturer's protocol (TopoGEN, Inc.). The total reaction volume was 20 μL of assay buffer (120 mM KCl, 50 mM Tris-HCl, 10 mM MgCl2, 0.5 mM DTT, 0.5 mM ATP, and 30 μg/mL BSA) and 120 ng of kinetoplast DNA (kDNA) substrate. One unit of TopoII enzyme in was added to reaction microfuge tubes in the presence or absence of inhibitor. The reaction was incubated for 30 min at 37° C. The reaction was stopped by addition of 5 μL of stop buffer (5% sarkosyl, 0.025% bromophenolblue, and 50% glycerol). The samples were then analyzed using electrophoresis using a 1% agarose gel in Tris-borate-EDTA buffer with 0.5 pg/mL ethidium bromide stain. Gels were imaged using Syngene G: Box Gel Imager (Chemi-XT4 GENESys software with preset for ethidium bromide stained agarose gels). Band intensities were analyzed using ImageJ software.

Another data set deals with pH2AX^Ser139. As to the kind of experiment: pH2AX immunohistochemistry of PANC-1 xenograft tumour sections. It is filed as in vivo, mice. Conditions: 20 mg/kg IP, 2 hours. The method, then: PANC-1 xenograft-bearing mice were injected with either teniposide or the Te-teniposide analogue 1 IP. A dose of 20 mg/kg was selected based on literature reports detailing teniposide drug delivery strategies. After 2 hours, mice were sacrificed and tissues of interest were harvested, formalin fixed, and paraffin embedded. Tissue sections (5 um) were cut and mounted onto microscopy slides. The expression of pH2AX^Ser139 levels were first assessed by immunohistochemistry. Serial sections derived from PANC-1 xenograft tumours were stained with primary antibody and subsequently HRP-conjugated secondary antibody for standard brown staining. DSBs are indicated by large, discrete pH2AX^Ser139 foci. Representative images of immunostained slides show increased pH2AX^Ser139 levels in treated mice relative to saline injected control with clear, punctate staining (FIG. 7).

Data set [1] relates to HL-60 cells. As to the kind of experiment: WST-1 viability assay in HL-60 cells. It is filed as cell-based. Conditions: Homo sapiens, HL-60, 24 h, read-out: inhibition of proliferation of HL-60 cells. The method, then:
The toxicity of 1 was compared to teniposide in HL-60 cells after incubation for 24 hours using a WST-1 viability assay.
WST-1 metabolic cytotoxicity assay: HL-60 cells (ATCC® CCL-240TM) were maintained in DMEM media with 2 mM L-glutamine (Gibco) supplemented with 20% calf serum and 100× dilution of penicillin-streptomycin solution (Gibco). Cells were maintained at 37° C. in a humidified atmosphere of 5% CO2 in air. HL-60 cells (100 pL) were seeded into a 96 well clear at a density of 5×10^5 cells/mL. Cells were treated with either DMSO or appropriate inhibitor from DMSO stocks. […] Cells were incubated for 24 h at 37° C. under a 5% CO2 atmosphere. WST-1 reagent (10 pL; Roche Diagnostics, 05015944001) was added to each well and gently mixed by pipetting. Cells were incubated for 1 h at 37° C. under 5% CO2 atmosphere. UV-vis absorbance measurements of each well at 450 nm was recorded using a TECAN Safire 2 plate reader. Data was background corrected against wells that contained cell growth media without cells and WST-1. Experiment was performed in triplicate.
On the technique in general: Tetrazolium assays rely on reduction of a dye to a coloured formazan, in cell work by metabolically active cells.

A short description of data set [2]: IMC analysis of tellurium in PANC-1 xenograft tumour sections.
Description: For IMC™ analysis, the initial objective was to visualize tellurium signal distribution in tumour sections and subsequently measure relative tellurium content in individual cells. Tumour sections were dewaxed, rehydrated and washed. Slides then were stained with Ir-intercalator to visualize cell nuclei, and then imaged by IMC™. The ^125Te isotope was visualised. […] Without wishing to be bound by theory, it was hypothesized that the processing of the FFPE tissues contributes to loss of tellurium signal as the teniposide interaction with the cells is largely non-covalent, thus the multiple wash steps required for dewaxing (xylene and ethanol washes) might have removed bound 1. To reduce the number of tissue processing steps, snap frozen samples prepared from the same tumours were sectioned and analyzed by IMC™.
To determine the corresponding concentration of Te present in the sample a set of standards containing increasing concentrations of Te were analyzed by IMC™. Based on the total counts present in each standard Te spot a count/Te atom constant was calculated (FIG. 8E).
Generation of murine PANC-1 xenograft model: All 6-week-old female NOD SCID mice (Charles River (Wilmington, MA) were maintained under specific pathogen-free (SPF) conditions at the Princess Margaret Cancer Centre (PMCC) facility. All animal experiments in this study were performed in accordance with the Animal Research Committee guidelines of the University Health Network institution. The subcutaneous PANC-1 xenograft mice were generated as described previously in Telox studies. The vehicle was prepared as follows: 30 mg benzyl alcohol, 60 mg N,N-dimethylacetamide, 500 mg purified Cremophor EL (Kolliphor EL), and 2.1 mL dehydrated alcohol were combined in a vial. The solution was topped with distilled water for a final volume of 5 mL. The pH of the clear solution is adjusted to pH ˜5 with maleic acid. For injections, drug was diluted with vehicle for a final concentration of 10 mg/mL and administered at 20 mg/kg by I.P. The mice were maintained in three groups; group 1 mice were injected with teniposide, group 2 received 1, and group 3 with normal saline. After 2 hours, mice were scarified, and tumors were extracted. […]
In data set [3] the test system is HL-60 cells. As to the kind of experiment: Competitive binding / cell labelling by mass cytometry (CyTOF) in HL-60 cells. It is filed as cell-based. The method, then:
To determine if cellular labelling with 1 was dependent on the presence of Top2-DNA binding sites a competitive binding MC experiment was carried out using Teniposide. HL-60 cells were treated with teniposide (10 μM) for two hours to saturate intracellular Top2-DNA ternary complexes with an unlabelled ligand, next 1 (2 or 10 μM) was introduced into the cell media and the suspension was gently mixed. After two hours, cells were harvested and washed three times with PBS. Cells were then fixed and permeabilized, followed by DNA staining with Ir-intercalator. Cell pellets were analyzed by MC for ^130Te content (FIG. 6).
Additionally, co-incubation experiments were conducted where HL-60 cells were treated with a cocktail of 1 (2 μM) and either 2, 10, or 20 μM teniposide (FIG. 6B). […] Without wishing to be bound by theory, it is hypothesized that the lack of competitive labelling observed in these experiments may be due to a combination of inhibition of Top2 and a considerable degree of non-specific binding with other cellular components. Several reports have documented the non-specific accumulation of etoposide and teniposide via oxidation catalyzed by cytochrome P450-dependent monooxygenases, peroxidases and tyrosinase enzymes. […] It is also plausible these reactive species modify other intracellular proteins, thus contributing to drug accumulation inside cells, but in a promiscuous and irreversible manner. […] In this case, the non-specific binding may dominate the target binding of teniposide, and likely its analogue Te-teniposide 1.
CYTOF® labelling: For pre-saturation experiment, 3×10^6 HL-60 cells (5×10^5 cells/mL) were incubated with appropriate teniposide concentration for 2 hours at 37° C. in a humidified atmosphere of 5% CO2 in air. Compound 1 was pipetted into the cell suspension and gently mixed. Cells were further incubated for 2 hours and then centrifuged for 6 min at 300×g, and the media was aspirated. For controls, HL-60 cells were treated with teniposide or compound 1 for 4 hours consecutively. […] Samples were then injected into the CYTOF® Helios™ and analyzed.

For orientation: IC50 means the concentration that inhibits the measured activity by half. A low value points to inhibition by little substance.

T1 sequence (P11388 whole entry): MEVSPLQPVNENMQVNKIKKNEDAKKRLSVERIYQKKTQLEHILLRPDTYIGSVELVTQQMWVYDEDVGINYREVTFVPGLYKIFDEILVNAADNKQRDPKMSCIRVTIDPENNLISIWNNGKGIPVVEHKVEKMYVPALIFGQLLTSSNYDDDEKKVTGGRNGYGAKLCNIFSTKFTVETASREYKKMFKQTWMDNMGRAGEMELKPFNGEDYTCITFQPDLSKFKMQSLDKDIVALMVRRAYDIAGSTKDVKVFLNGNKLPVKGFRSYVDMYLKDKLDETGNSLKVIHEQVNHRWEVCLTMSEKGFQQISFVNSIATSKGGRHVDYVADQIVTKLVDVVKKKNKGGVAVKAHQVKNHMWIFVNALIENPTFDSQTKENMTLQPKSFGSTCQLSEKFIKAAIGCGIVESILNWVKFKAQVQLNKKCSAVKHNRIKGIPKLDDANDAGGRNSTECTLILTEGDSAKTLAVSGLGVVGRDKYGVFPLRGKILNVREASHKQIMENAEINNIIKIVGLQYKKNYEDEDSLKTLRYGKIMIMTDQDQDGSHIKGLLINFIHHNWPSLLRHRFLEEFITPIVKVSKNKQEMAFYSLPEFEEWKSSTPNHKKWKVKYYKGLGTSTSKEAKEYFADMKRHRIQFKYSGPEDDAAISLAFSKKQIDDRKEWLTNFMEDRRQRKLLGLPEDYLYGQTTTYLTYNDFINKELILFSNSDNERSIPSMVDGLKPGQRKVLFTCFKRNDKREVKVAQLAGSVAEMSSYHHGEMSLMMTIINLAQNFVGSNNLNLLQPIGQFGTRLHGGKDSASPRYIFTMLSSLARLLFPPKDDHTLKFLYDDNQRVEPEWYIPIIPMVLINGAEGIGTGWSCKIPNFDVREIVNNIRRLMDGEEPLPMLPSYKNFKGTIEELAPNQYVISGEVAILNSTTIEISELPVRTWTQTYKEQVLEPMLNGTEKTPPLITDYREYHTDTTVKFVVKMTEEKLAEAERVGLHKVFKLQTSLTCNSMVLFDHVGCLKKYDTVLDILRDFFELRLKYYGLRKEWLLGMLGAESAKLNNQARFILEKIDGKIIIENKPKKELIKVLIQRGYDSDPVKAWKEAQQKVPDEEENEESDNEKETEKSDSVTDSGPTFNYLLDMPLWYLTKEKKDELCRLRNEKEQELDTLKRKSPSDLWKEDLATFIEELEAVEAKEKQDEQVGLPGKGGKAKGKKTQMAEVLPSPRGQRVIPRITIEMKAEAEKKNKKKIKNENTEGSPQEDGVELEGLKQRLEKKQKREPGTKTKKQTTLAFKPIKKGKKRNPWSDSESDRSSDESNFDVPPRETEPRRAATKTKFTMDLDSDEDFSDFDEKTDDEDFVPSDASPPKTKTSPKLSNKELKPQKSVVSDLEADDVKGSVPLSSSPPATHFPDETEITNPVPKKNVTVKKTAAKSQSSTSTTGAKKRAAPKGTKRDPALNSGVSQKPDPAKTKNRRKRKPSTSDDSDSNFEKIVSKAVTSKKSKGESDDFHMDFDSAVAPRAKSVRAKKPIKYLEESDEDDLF

Regarding `COc1cc([C@@H]2c3cc4c(cc3[C@@H](OC3OC5COC(c6ccc[te]6)OC5C(O)C3O)[C@H]3COC(=O)C23)OCO4)cc(OC)c1O` (some centres unmarked) [Compound 1, Tellurium-labelled teniposide], the half-inhibitory concentration (IC50) against Top2 was 5.6 µM. For the same compound, the “inhibition of the decatenation reaction” value on Top2 (5, 10, 25 and 50 μM) is listed as “dose-dependent inhibition”. In the data set with pH2AX^Ser139, the “pH2AX^Ser139 levels in tumour sections relative to saline injected control” value is “increased”. In the data set with HL-60 cells [1], the inhibition at 50 µM is at most 60%. Further, the “^125Te signal in snap frozen tumour sections by IMC” value in data set [2] (20 mg/kg IP, 2 h before sacrifice, frozen sections) is reported as “signals were observed”. For the same compound, the “Te signal in FFPE tumour sections by IMC” value in data set [2] (20 mg/kg IP, 2 hours, FFPE sections, ^125Te) is recorded as “no Te signal above background”. The “Te signal in samples collected at later timepoints after dosing” value in data set [2] (frozen sections, later timepoints) is given as “not observed”. For the same compound, in data set [2] (frozen tumour sections, at the time of analysis, no precise value), the “average concentration in the tissue” value was “low tens”. Moreover, the “competition for Top2 in co-incubation” value in the data set on HL-60 cells [3] (1 (2 μM) with 2, 10 or 20 μM teniposide) is listed as “no competition”. Also, in the data set on HL-60 cells [3] (2 and 10 μM), the “cell labelling (^130Te) by MC” value is “readily detected”. The “reduction of ^130Te signal in cells pretreated with unlabeled teniposide” value in the data set on HL-60 cells [3] (teniposide 10 μM for two hours, then 1 at 2 or 10 μM for two hours) is given as “not observed”.
